Data set [1] in a line: Caco-2 membrane permeability and efflux rate. Particulars: human, Caco-2, Caco-2, 5 μM. The format is in vitro ADME. Here is the method: The recovered Caco-2 cell suspension was seeded into a […] plate and cultured for 14-18 days. After being cultured for 14 days, the cells were fused and differentiated to be ready for a transport experiment. The Caco-2 cell plate was taken out from the incubator. Stock solutions of a to-be-tested compound and a control compound were formulated with DMSO and diluted with an HBSS (10 mM HEPES, pH 7.4) buffer to a final concentration of 5 μM. A test compound solution and a control drug solution were added to each well (top end) of an insert culture plate, and the HBSS (10 mM HEPES, pH 7.4) buffer was added to each well of a test compound receiving plate (basal end). When measuring the transport rate of the compound from the basal end to the top end, the test compound solution and the control drug solution were added to each well of the receiving plate (basal end), the HBSS (10 mM HEPES, pH 7.4) buffer solution was added to each well (top end) of the insert culture plate for the test compound solution, and incubation was carried out for 2 hours in a CO2 incubator at 37° C. After the transport experiment was completed, vortexing was carried out for 10 minutes at 1000 rpm. After sample quenching at each time point, LC/MS/MS analysis was carried out. A fluorescence value was measured after a two-hour transport experiment, a lucifer yellow solution was added in a transwell chamber (top end), a transport buffer solution was added in the basal end, and incubation was carried out for 30 minutes in the CO2 incubator at 37° C. The solution was taken out directly from the top end and the basal end (using basolateral wells) and transferred to a new 96-well plate. A cell fluorescence value was measured by a microplate reader (to detect membrane integrity), an excitation wavelength was […], and an emission wavelength was […]. All data were calculated by using Microsoft Excel, and a peak area was calculated according to chromatograms. An apparent permeability coefficient (Papp, unit: 10-6, cm/s) and an efflux rate (ER) of the compounds in Caco-2 cells were calculated by the specific concentrations of a receiving end and an administering end.

In data set [2] the target is T1, CDK12 (aa686-1082)/cyclinK complex (Homo sapiens, UniProt Q9NYV4).
T1 construct: A CDK12 (aa686-1082)/cyclinK complex (50 nM)
T1 sequence (Q9NYV4 686-1082, species assumed): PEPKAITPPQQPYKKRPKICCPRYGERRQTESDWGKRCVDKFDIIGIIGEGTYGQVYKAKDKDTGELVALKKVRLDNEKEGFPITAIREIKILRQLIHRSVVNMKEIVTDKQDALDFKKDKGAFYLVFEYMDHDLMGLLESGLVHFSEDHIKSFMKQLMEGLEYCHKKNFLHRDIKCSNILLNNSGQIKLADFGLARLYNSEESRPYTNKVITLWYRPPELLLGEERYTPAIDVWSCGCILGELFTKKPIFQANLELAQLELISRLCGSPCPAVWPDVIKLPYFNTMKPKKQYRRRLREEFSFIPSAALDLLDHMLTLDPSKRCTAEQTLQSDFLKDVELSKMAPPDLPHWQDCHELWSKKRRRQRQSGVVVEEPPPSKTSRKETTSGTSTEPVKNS
T1 sequence (O75909 whole entry partner, species assumed, the tested form may be a part): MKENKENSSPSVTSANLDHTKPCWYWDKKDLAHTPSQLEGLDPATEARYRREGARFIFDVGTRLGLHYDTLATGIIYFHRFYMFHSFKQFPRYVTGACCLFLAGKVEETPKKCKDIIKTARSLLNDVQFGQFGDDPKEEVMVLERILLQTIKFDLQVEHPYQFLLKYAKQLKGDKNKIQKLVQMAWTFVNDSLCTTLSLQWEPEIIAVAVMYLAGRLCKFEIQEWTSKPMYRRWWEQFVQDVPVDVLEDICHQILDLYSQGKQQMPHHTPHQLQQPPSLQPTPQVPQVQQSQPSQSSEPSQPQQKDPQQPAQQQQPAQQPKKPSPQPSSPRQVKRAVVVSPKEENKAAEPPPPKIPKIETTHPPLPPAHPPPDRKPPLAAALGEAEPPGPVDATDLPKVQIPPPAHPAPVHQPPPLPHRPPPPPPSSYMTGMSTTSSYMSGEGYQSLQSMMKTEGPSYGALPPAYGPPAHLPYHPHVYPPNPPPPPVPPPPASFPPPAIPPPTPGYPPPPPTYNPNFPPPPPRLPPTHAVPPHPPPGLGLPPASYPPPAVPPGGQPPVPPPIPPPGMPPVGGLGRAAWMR
Kind of data set: In-vitro enzymatic inhibitory activity testing, CDK12 inhibition assay (Caliper EZ Reader II). It is filed as biochemical. Particulars: CDK12/cyclinK 50 nM, 180 min at 27° C.; read-out: CDK12 IC50. Put shortly:
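Caliper EZ Reader II mobility-shift separation of 5-FAM-CDK9tide substrate (2 μM) from phosphoproduct, using 50 nM CDK12 (aa686-1082)/cyclinK in 80 mM MES pH 6.5, 10 mM MgCl2, 0.01% Tween 20, 50 ug/mL BSA. Compound pre-incubated 10 min with enzyme, then substrate/ATP added for 180 min at 27° C; EDTA stop. IC50 by nonlinear dose-response regression.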

For data set [3], the system named is ovarian cancer A2780. As to the kind of experiment: Cell biological activity detection (CyQuant, 72 hours), A2780. The format is cell-based, human. Particulars: A2780 cells, incubation for 72 hours. Put shortly:
(§1)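 A2780 and HCC70 cells seeded at 2000/well in RPMI 1640 + 10% FBS, treated next day with 9-point compound dilutions (top 10 μM, 1:4; 0.2% DMSO) for 72 h at 37 °C. Cell number read by CyQuant Direct nucleic acid stain (ex 488 nm); IC50 from dose–response fit.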

The target of data set [4] is CDK7/cyclinH/MAT1 complex (Homo sapiens, UniProt P50613). Kind of data set: In-vitro enzymatic inhibitory activity testing, CDK7 inhibition assay (Caliper EZ Reader II). Particulars: CDK7/cyclinH/MAT1 6 nM, 180 min at 27° C. It is filed as biochemical. Put shortly:
(§2)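 Enzyme preincubated 10 min with compound, then peptide substrate plus ATP added in 80 mM MES pH 6.5, 10 mM MgCl2 buffer; 180 min at 27 °C, stopped with EDTA.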

Data set [5] deals with CDK9/cyclinT1 complex (Homo sapiens, UniProt P50750). Kind of data set: In-vitro enzymatic inhibitory activity testing, CDK9 inhibition assay (Caliper EZ Reader II). The format is biochemical. Particulars: CDK9/cyclinT1 8 nM, 180 min at 27° C. Put shortly:
as §2

In data set [6] the target is CDK2/cyclinE1 complex (Homo sapiens, UniProt P24941). Kind of data set: In-vitro enzymatic inhibitory activity testing, CDK2 inhibition assay (Caliper EZ Reader II). The format is biochemical. Particulars: CDK2/cyclinE1 0.5 nM, 180 min at 27° C. Put shortly:
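CDK2/cyclinE1 (0.5 nM) phosphorylated 5-FAM-CDK7tide (2 μM) in MES buffer pH 6.5 with MgCl2, Tween 20 and BSA. Substrate and product were separated electrophoretically on a Caliper EZ Reader II. IC50 values came from nonlinear dose-response fits.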

In data set [7] the test system is human breast cancer cells HCC70. Kind of data set: Cell biological activity detection (CyQuant, 72 hours), HCC70. It is filed as cell-based. Particulars: incubation for 72 hours. Put shortly:
as §1

Sequence of CDK7/cyclinH/MAT1 complex (P50613 whole entry, species assumed): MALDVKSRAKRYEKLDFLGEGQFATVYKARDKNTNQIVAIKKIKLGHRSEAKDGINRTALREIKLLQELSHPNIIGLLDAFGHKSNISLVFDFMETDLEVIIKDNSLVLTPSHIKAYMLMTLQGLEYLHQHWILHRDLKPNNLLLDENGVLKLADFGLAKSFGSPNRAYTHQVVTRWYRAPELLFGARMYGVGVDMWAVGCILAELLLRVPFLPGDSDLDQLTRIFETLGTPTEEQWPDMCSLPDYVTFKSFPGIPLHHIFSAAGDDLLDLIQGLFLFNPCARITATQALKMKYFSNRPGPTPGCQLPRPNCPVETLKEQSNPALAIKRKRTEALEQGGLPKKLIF
Sequence of CDK7/cyclinH/MAT1 complex (P51946 whole entry partner, species assumed): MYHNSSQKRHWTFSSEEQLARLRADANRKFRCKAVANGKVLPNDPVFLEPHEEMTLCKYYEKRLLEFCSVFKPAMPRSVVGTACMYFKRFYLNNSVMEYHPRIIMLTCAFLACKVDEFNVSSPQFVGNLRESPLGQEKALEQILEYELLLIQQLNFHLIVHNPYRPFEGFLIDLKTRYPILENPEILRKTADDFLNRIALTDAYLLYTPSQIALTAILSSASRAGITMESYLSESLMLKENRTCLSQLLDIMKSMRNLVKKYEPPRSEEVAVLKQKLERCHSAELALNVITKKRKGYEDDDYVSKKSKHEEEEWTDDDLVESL
Sequence of CDK7/cyclinH/MAT1 complex (P51948 whole entry partner, species assumed): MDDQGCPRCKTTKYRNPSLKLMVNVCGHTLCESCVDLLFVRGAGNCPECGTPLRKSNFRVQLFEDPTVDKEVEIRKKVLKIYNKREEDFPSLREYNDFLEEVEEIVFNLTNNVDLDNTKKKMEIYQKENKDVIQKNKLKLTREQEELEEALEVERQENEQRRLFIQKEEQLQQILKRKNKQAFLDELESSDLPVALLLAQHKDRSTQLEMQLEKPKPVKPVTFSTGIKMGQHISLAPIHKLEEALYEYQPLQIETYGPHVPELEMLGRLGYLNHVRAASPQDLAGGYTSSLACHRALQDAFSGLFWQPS
Sequence of CDK9/cyclinT1 complex (P50750 whole entry, species assumed): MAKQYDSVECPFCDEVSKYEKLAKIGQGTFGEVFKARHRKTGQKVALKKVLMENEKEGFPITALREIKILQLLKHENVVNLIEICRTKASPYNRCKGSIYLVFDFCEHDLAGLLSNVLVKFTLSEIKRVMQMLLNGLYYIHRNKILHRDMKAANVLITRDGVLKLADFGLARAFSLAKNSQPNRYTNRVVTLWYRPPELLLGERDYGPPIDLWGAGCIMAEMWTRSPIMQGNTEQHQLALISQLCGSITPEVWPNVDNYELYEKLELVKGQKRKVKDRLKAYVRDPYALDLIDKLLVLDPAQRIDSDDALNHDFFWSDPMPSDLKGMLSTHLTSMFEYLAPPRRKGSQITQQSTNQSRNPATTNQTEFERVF
Sequence of CDK9/cyclinT1 complex (O60563 whole entry partner, species assumed): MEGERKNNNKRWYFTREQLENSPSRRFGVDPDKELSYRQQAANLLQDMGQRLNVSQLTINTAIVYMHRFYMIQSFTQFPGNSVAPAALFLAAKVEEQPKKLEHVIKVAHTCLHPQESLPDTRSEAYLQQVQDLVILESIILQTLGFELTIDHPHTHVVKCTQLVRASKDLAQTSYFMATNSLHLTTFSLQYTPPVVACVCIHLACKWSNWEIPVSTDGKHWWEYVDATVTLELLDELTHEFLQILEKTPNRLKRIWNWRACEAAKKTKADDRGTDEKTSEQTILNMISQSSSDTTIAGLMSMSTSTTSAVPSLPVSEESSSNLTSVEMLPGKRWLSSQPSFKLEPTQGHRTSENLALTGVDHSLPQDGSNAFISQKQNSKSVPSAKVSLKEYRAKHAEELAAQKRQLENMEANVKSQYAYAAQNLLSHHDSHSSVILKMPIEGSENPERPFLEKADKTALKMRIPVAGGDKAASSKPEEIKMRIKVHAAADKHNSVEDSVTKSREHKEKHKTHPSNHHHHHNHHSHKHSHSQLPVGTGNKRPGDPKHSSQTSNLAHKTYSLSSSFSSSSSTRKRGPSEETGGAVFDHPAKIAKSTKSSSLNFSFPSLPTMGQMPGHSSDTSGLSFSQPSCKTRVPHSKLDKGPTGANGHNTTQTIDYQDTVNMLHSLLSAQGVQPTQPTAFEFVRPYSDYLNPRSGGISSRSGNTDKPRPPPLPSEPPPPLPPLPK

The compound `CP(C)(=O)c1cccc2c(-c3nc(N[C@H]4CCCNC4)ncc3C(F)(F)F)c[nH]c12` [A control compound WO2018013867 (353), reference compound] returned a Papp B→A at 2 h, 5 μM in data set [1] (basal end to top end) of 15.9 ×10⁻⁶ cm/s. Also, the efflux ratio at 2 h, 5 μM in data set [1] (read-out: ER (efflux rate)) was 70.7. For the same compound, in data set [1] (top end to basal end), the Papp A→B at 2 h, 5 μM came out at 0.23 ×10⁻⁶ cm/s.

In the case of `FC(F)(F)c1cnc(NC2COC3(CCCNC3)C2)nc1-c1c[nH]c2nc(N3CCOCC3)ccc12` (stereo not drawn) [Compound 50, N-(4-(6-morpholinyl-1H-pyrrolo[2,3-b]pyridin-3-yl)-5-(trifluoromethyl)pyrimidin-2-yl)-1-oxa-7-azaspiro[4.5]decan-3-amine], the IC50 in data set [2] is 5 to 50 µM; in data set [3] (Homo sapiens, A2780, 72 h), 0.2 to 5 µM; in data set [4], 0.2 to 5 µM; in data set [5], above 50 µM; in data set [6] it was 5 to 50 µM; in data set [7] (Homo sapiens, HCC70, 72 h), 0.2 to 5 µM.

Regarding `CP(C)(=O)c1cccc2c(-c3nc(N[C@@H](CO)C4CC4)ncc3C(F)(F)F)c[nH]c12` [Compound 159, (R)-(3-(2-((1-cyclopropyl-2-hydroxyethyl)amino)-5-(trifluoromethyl)pyrimidin-4-yl)-1H-indole-7-yl)dimethylphosphine oxide], the IC50 was above 50 µM in data set [2]; 0.02 to 0.2 µM in data set [3] (Homo sapiens, A2780, 72 h); below 0.02 µM in data set [4]; above 50 µM in data set [5]; 5 to 50 µM in data set [6]; 0.02 to 0.2 µM in data set [7] (Homo sapiens, HCC70, 72 h).

`CC1(C)COCC(Nc2ncc(C(F)(F)F)c(-c3c[nH]c4c(P(C)(C)=O)cccc34)n2)CN1` (single isomer, unassigned) [Compound 92, (3-(2-((3,3-dimethyl-1,4-oxazepan-6-yl)amino)-5-(trifluoromethyl)pyrimidin-4-yl)-1H-indole-7-yl)dimethylphosphine oxide]: the IC50 is 5 to 50 µM in data set [2]; below 0.02 µM in data set [3]; below 0.02 µM in data set [4]; 5 to 50 µM in data set [5]; 5 to 50 µM in data set [6]; 0.02 to 0.2 µM in data set [7].

`C[C@@H](CO)Nc1ncc(Br)c(-c2c[nH]c3c(P(C)(C)=O)cccc23)n1` [Compound 177, (S)-(3-(5-bromo-2-((1-hydroxypropan-2-yl)amino)pyrimidin-4-yl)-1H-indole-7-yl)dimethylphosphine oxide]: the IC50 is 5 to 50 µM in data set [2]; below 0.02 µM in data set [3] (Homo sapiens, A2780, 72 h); below 0.02 µM in data set [4]; 5 to 50 µM in data set [5]; 0.2 to 5 µM in data set [6]; below 0.02 µM in data set [7] (Homo sapiens, HCC70, 72 h).

As to `CP(C)(=O)c1cccc2c(-c3nc(Nc4cn[nH]c4)ncc3C(F)(F)F)c[nH]c12` [Compound 84, (3-(2-((1H-pyrazol-4-yl)amino)-5-(trifluoromethyl)pyrimidin-4-yl)-1H-indole-7-yl)dimethylphosphine oxide], the IC50 in data set [2] was 0.2 to 5 µM; in data set [3] (Homo sapiens, A2780, 72 h), below 0.02 µM; in data set [4], below 0.02 µM; in data set [5], 5 to 50 µM; in data set [6], 0.02 to 0.2 µM; in data set [7] (Homo sapiens, HCC70, 72 h), below 0.02 µM.

With `CP(C)(=O)c1cccc2c(-c3nc(NC4CC45CCNC5)ncc3C(F)(F)F)c[nH]c12` (single isomer, unassigned) [Compound 108], the half-inhibitory concentration (IC50) in data set [2] was 0.2 to 5 µM; in data set [3] (Homo sapiens, A2780, 72 h), below 0.02 µM; in data set [4], below 0.02 µM; in data set [5], 5 to 50 µM; in data set [6], 0.2 to 5 µM; in data set [7] (Homo sapiens, HCC70, 72 h), below 0.02 µM.

Turning to `C[C@H]1COCCN1c1ccc2c(-c3nc(N[C@@H]4CCC45CNC5)ncc3C(F)(F)F)c[nH]c2n1` [Compound 67, (R)—N-(4-(6-((S)-3-methylmorpholine)-1H-pyrrolo[2,3-b]pyridin-3-yl)-5-(trifluoromethyl)pyrimidin-2-yl)-2-azaspiro[3.3]heptan-5-amine], the IC50 in data set [2] is 5 to 50 µM; in data set [3] (Homo sapiens, A2780, 72 h), 0.02 to 0.2 µM; in data set [4] it was below 0.02 µM; in data set [5], 5 to 50 µM; in data set [6], 5 to 50 µM; in data set [7] (Homo sapiens, HCC70, 72 h), 0.02 to 0.2 µM.

As to `FC(F)(F)c1cnc(NC2CCC23CCNC3)nc1-c1c[nH]c2nc(N3CCOCC3)ccc12` (stereo not drawn) [Compound 37, N-(4-(6-morpholinyl-1H-pyrrolo[2,3-b]pyridin-3-yl)-5-(trifluoromethyl)pyrimidin-2-yl)-6-azaspiro[3.4]octan-1-amine], the IC50 in data set [2] was 5 to 50 µM; in data set [3] (Homo sapiens, A2780, 72 h), 0.2 to 5 µM; in data set [4], 0.02 to 0.2 µM; in data set [5] it was 5 to 50 µM; in data set [6], 5 to 50 µM; in data set [7] (Homo sapiens, HCC70, 72 h), 0.2 to 5 µM.

Take `CC(O)[C@H](C)Nc1ncc(C(F)(F)F)c(-c2c[nH]c3c(P(C)(C)=O)cccc23)n1` (mixture of isomers) [Compound 128, (3-(2-(((2S)-3-hydroxybutan-2-yl)amino)-5-(trifluoromethyl)pyrimidin-4-yl)-1H-indole-7-yl)dimethylphosphine oxide]: the half-maximal inhibitory concentration (IC50) was above 50 µM in data set [2]; below 0.02 µM in data set [3] (Homo sapiens, A2780, 72 h); below 0.02 µM in data set [4]; above 50 µM in data set [5]; 5 to 50 µM in data set [6]; 0.02 to 0.2 µM in data set [7] (Homo sapiens, HCC70, 72 h).

As to `CP(C)(=O)c1cccc2c(-c3nc(NCC4(O)CCOCC4)ncc3C(F)(F)F)c[nH]c12` [Compound 175], the IC50 in data set [2] was above 50 µM; in data set [3] (Homo sapiens, A2780, 72 h) it was 0.2 to 5 µM; in data set [4], 0.02 to 0.2 µM; in data set [5], above 50 µM; in data set [6] it was 5 to 50 µM; in data set [7] (Homo sapiens, HCC70, 72 h) it was 0.02 to 0.2 µM.

As to `CP(C)(=O)c1cccc2c(-c3nc(NC4(CO)CCOC4)ncc3C(F)(F)F)c[nH]c12` (stereo not drawn) [Compound 117, (3-(2-((3-(hydroxymethyl)tetrahydrofuran-3-yl)amino)-5-(trifluoromethyl)pyrimidin-4-yl)-1H-indole-7-yl)dimethylphosphine oxide], the IC50 in data set [2] was above 50 µM; in data set [3] (Homo sapiens, A2780, 72 h), below 0.02 µM; in data set [4], below 0.02 µM; in data set [5] it was above 50 µM; in data set [6], 5 to 50 µM; in data set [7] (Homo sapiens, HCC70, 72 h), below 0.02 µM.

These data come from patent publication US20240124504A1, “AROMATIC HETEROCYCLIC COMPOUND, AND PHARMACEUTICAL COMPOSITION AND APPLICATION THEREOF” (GT APEIRON THERAPEUTICS LIMITED, priority 2020, published 2024).
